The values that follow are results of earlier work, collected in US7638678B2, “Animal model for perimenopause and menopause and methods of inducing ovarian failure” (The Arizona Board of Regents, priority 2002, dated 2009).

One data set has as its system ovarian follicles. The following applies: B6C3F1 mice dosed with VCH; cited from earlier work.
For data set [1] the following is noted: i.p. minipumps versus injection; cited from earlier work.

Regarding `C=CC1CC=CCC1` (centres unmarked) [VCH, 4-vinylcyclohexene], the “Premature ovarian failure in long term studies” value in the data set on ovarian follicles is reported as “premature ovarian failure occurred within a year”. As to endostatin, in data set [1], the “Decrease of the effective dose by continuous administration” value is recorded as 8-10 fold.
